# Results as given in publication PMC4575030 (PLoS ONE, 2015).
# What was measured:
# [1] = system: C-fiber nociceptors; experiment: In vivo teased-fiber recording from tibial nerve after CFA, C-fibers; parameters: species or system rat; settings: for Heat response threshold of C-fiber nociceptors: n = 9
# Method: A total of 55 adult, male, Sprague–Dawley rats (Harlan, Indianapolis, IN) weighing 300–350 g were used for electrophysiology. To ensure that electrophysiology studies were performed on rats with mechanical hyperalgesia, behavioral measures of mechanical hyperalgesia were obtained before and at 24 h after administration of CFA (and just prior to the electrophysiological studies). Mechanical hyperalgesia was assessed by determining the frequency of paw withdrawal evoked by mechanical stimulation using a 26 g Semmes-Weinstein von Frey monofilament (Stoelting, Wood Dale, IL). Rats were placed on an elevated wire mesh platform under individual plastic cages and acclimated to the testing environment for 30 minutes prior to testing. The monofilament was applied to the mid-plantar surface of the hindpaw ten times for 1–2 s each with an inter-stimulus interval of approximately 5–10 s and the paw withdrawal frequency (percent) was determined. Baseline measures were determined for each rat for three consecutive days prior to injection of CFA. Mechanical hyperalgesia was defined as an increase in the paw withdrawal frequency.
# Rats were initially anesthetized by intramuscular injection of ketamine (100 mg/kg) and xylazine ([…]). […] Core body temperature was maintained at 37°C using a feedback-controlled heating pad (Harvard Apparatus, Holliston, MA, USA).
# Recordings were made from cutaneous afferent fibers of the left tibial nerve using a teased-fiber approach. The tibial nerve was dissected from the surrounding tissue and the overlaying skin was sewn to a metal ring to form a pool that was filled with warm mineral oil. The tibial nerve was placed onto a mirror platform for fine dissection with sharpened fine forceps (Fine Science Tools, Foster City, CA, USA). Teased fibers were placed onto a tungsten wire electrode and action potentials were recorded extracellularly. […] Only fibers with clearly discriminated single action potentials were studied. Responses of individual fibers were analyzed off-line using the Spike2 data analysis program (Cambridge Electronic Design, Cambridge, UK).
# Afferent fibers were found by their ongoing spontaneous activity and by mechanically stimulating the plantar surface of the hind paw with the experimenter's finger or von Frey monofilaments. Once a single fiber was identified that was excited by mild pinching but not light touch, its mechanical receptive field was marked on the skin using a felt-tipped pen.
# Conduction velocity was determined by electrically stimulating the skin outside the fiber’s receptive field with pin electrodes (200 μs pulse width at 0.5 Hz) to electrically activate the fiber. The fiber was stimulated at 1.5 times its electrical threshold and the conduction latency was measured from the time of the electrical stimulus artifact to the evoked action potential. Conduction distance was determined by measuring the distance from the fiber's receptive field to the recording electrode. Conduction velocity (m/s) was calculated by dividing conduction distance by conduction latency. Fibers were classified as Aδ-fiber nociceptors if they had conduction velocities between 2.4–25.0 m/s and as C-fiber nociceptors if conduction velocity was < 2.4 m/s.
# Nociceptors were classified functionally according to their responsiveness to mechanical and heat stimulation. Mechanical stimuli used to classify units included light brushing with the tip of a cotton swab, mildly pinching with a pair of forceps, and application of von Frey filaments. Mechanical response thresholds were determined using a series of von Frey monofilaments and defined as the weight (g) required to evoke at least one action potential when applied to the receptive field for 1–2 s. Heat stimuli were delivered using a feedback-controlled Peltier device (Yale Electronics, New Haven, CT) with a contact area of 1 cm^2. […]
# [2] = system: rat formalin model of pain; experiment: Formalin test (formalin-induced flinching); type: in vivo; settings: for Decrease in formalin flinching: phase 2 (10 to 40 min), percent of vehicle
# Method: Formalin-induced flinching was measured using the Automated Nociception Analyzer (ANA) (University Anesthesia Research & Development Group, La Jolla, CA). Rats were habituated to the ANA testing chambers for at least 30 minutes prior to the formalin injection. At test time, each rat was removed from the testing chamber and gently wrapped in a towel. 50 μL of 2.5% formalin solution was injected into the dorsal surface of the left hind paw with a 30 gauge needle. A small metal band was then affixed to the plantar side of the injected paw with one drop of super glue. The animal was then unwrapped from the towel, placed back in the testing chamber, and flinching behavior was scored for 40 minutes by the ANA software. While minimized, non-painful paw movement from the natural activity of an alert animal could be erroneously binned by the automated recording system as a nociceptive behavior. These behaviors are not subtracted from the flinching total. […] Total flinching behavior was used as the endpoint of the assay.
# [3] = 30 minutes after i.v. injection
# [4] = 60 minutes after i.v. injection
smiles,measurement,setting,value
"CC(=O)Nc1cccc(Nc2ncnc(N3CCC(OCc4ccc(OC(F)(F)F)cc4)CC3)n2)c1C [Compound 52, N-(2-methyl-3-((4-(4-((4-(trifluoromethoxy)benzyl)oxy)-1-piperidinyl)-1,3,5-triazin-2-yl)amino)phenyl)acetamide]","Mean cumulative number of action potentials evoked by all heat stimuli, C-fibers",[1]; [3],19.2 ± 3.6
same,"Mean number of action potentials evoked by a suprathreshold mechanical stimulus (250 mN), C-fibers",[1]; [3],19.9 ± 5.4
same,Mechanical response threshold of C-fiber nociceptors,[1]; [3],60.4 ± 9.8 mN
same,Heat response threshold of C-fiber nociceptors,[1]; [3],47.0 °C
same,"Number of action potentials evoked by heat stimuli, C-fibers","[1]; 30 minutes after i.v. injection, 48°C and 50°C reduced",reduced the number of action potentials evoked by heat stimuli
same,"Mean number of action potentials evoked by a suprathreshold mechanical stimulus (250 mN), C-fibers",[1]; [4],11.6 ± 3.2
same,Mechanical response threshold of C-fiber nociceptors,[1]; [4],60.1 ±9.1 mN
same,"Mean cumulative number of action potentials evoked by all heat stimuli, C-fibers",[1]; before injection,39.2 ± 6.5
same,"Mean number of action potentials evoked by a suprathreshold mechanical stimulus (250 mN), C-fibers","[1]; before injection, n = 8",28.9 ± 6.2
same,Heat response threshold of C-fiber nociceptors,[1]; before injection,45.0 °C
same,Mechanical response threshold of C-fiber nociceptors,"[1]; before injection, n = 11",44.5 ± 7.5 mN
same,Time after beginning the injection at which the rate of ongoing spontaneous activity was significantly decreased,"[1]; i.v. 2.5 mg over 15 min, remained decreased until 26 minutes",≤ 12 min
same,"Spontaneous firing of C-fiber nociceptors, after compound","[1]; one day after CFA, after i.v. 2.5 mg (approximately 8 mg/kg)",~0.2 Hz
same,"Spontaneous firing of C-fiber nociceptors, before compound","[1]; one day after CFA, before i.v. injection",approximately 0.7 Hz
same,Decrease in formalin flinching,[2]; 3 mg/kg p.o.,9%
same,Decrease in formalin flinching,[2]; 10 mg/kg p.o.,22%
same,Decrease in formalin flinching,[2]; 30 mg/kg p.o.,79%
same,Analgesic efficacy,"[2]; rat formalin model, significant (p < 0.05) decrease in flinching at a dose without a reduction in open field movement that obviated the result",Yes
same,"Reduction in formalin flinching, result in words",[2]; rat formalin test,statistically significant and plasma concentration-dependent reduction in formalin flinching
same,"Behavioral analgesic efficacy in the formalin model, i.v. delivery","[2]; same formulation and i.v. route as electrophysiology, data not shown",equivalent to morphine
